Measured values from the NIST ThermoML archive (doi:10.1021/acs.jced.9b00001).
Several values for one entry are separate records, joined by “and”; a condition that tells them apart may be missing. Identical values can stand only once.

Settings: Liquid, Closed cell (Static) method

FC(F)(F)/C=C/Cl [(E)-1-chloro-3,3,3-trifluoroprop-1-ene]
Settings | vapor or sublimation pressure
253.17 K | 17.85 kPa
257.16 K | 22.05 kPa
260.17 K | 25.84 kPa
263.21 K | 30.13 kPa
267.04 K | 36.26 kPa and 36.26 kPa
270.14 K | 41.85 kPa
273.14 K | 47.91 kPa
277.11 K | 57.02 kPa
280.14 K | 64.83 kPa
283.09 K | 73.21 kPa
287.12 K | 86.04 kPa
290.14 K | 96.6 kPa
290.16 K | 96.73 kPa
293.09 K | 108.04 kPa
293.17 K | 108.4 kPa
297.15 K | 125.37 kPa
297.16 K | 125.42 kPa
300.15 K | 139.48 kPa
303.16 K | 154.83 kPa
307.16 K | 177.3 kPa
310.15 K | 195.73 kPa
313.15 K | 215.48 kPa
317.16 K | 244.36 kPa
320.16 K | 267.95 kPa
323.15 K | 293.08 kPa
323.25 K | 293.99 kPa
323.36 K | 295.01 kPa
327.16 K | 329.62 kPa
330.15 K | 359.02 kPa
333.14 K | 390.34 kPa and 390.35 kPa
333.15 K | 390.53 kPa
337.15 K | 435.75 kPa
340.15 K | 472.19 kPa
343.13 K | 510.48 kPa
343.15 K | 510.8 kPa and 510.94 kPa
343.19 K | 511.2 kPa
347.15 K | 566.08 kPa
350.16 K | 610.55 kPa
353.18 K | 657.68 kPa and 657.72 kPa
353.19 K | 657.8 kPa and 657.95 kPa
357.16 K | 724.03 kPa
360.16 K | 777.18 kPa
363.17 K | 833.48 kPa
363.2 K | 834.12 kPa
363.23 K | 834.57 kPa and 835.18 kPa
367.17 K | 913.02 kPa
370.17 K | 976.1 kPa
373.17 K | 1042.6 kPa and 1043.1 kPa
373.19 K | 1043.2 kPa and 1043.3 kPa
377.15 K | 1136.1 kPa
380.15 K | 1210.4 kPa
383.2 K | 1289.7 kPa
383.21 K | 1289.9 kPa
383.22 K | 1290.5 kPa and 1290.6 kPa
387.16 K | 1398.3 kPa
390.15 K | 1484.8 kPa
393.17 K | 1576.2 kPa
393.2 K | 1577.7 kPa
393.21 K | 1577.4 kPa and 1578 kPa
397.18 K | 1704 kPa
397.22 K | 1705.7 kPa
400.23 K | 1806.9 kPa
400.24 K | 1806.7 kPa
403.14 K | 1908.4 kPa
403.15 K | 1909 kPa
403.22 K | 1911.4 kPa and 1911.9 kPa
403.26 K | 1912.9 kPa
407.13 K | 2055.5 kPa
408.25 K | 2098.3 kPa
410.17 K | 2173.3 kPa
413.1 K | 2291.7 kPa
413.18 K | 2294.5 kPa
413.19 K | 2294.6 kPa and 2295.1 kPa and 2294.9 kPa
417.18 K | 2463.9 kPa
418.23 K | 2510.4 kPa
420.13 K | 2595.8 kPa
423.15 K | 2735.4 kPa and 2736 kPa
423.18 K | 2737.1 kPa
423.19 K | 2737.5 kPa
427.19 K | 2932.7 kPa
430.25 K | 3090.6 kPa
